In brackets after ≈: the same amount, converted by molar mass. Square brackets hold non-standard residues; d marks the D form. Peptide text beside a SMILES is read from it.
What was measured:
Salmonella Enteritidis = assay: microbe, parasite or virus in culture; format: cell-based; details: 48 h
Method: (§1) Antimicrobial activity of the peptides was evaluated against Escherichia coli JCM 5491, Pseudomonas aeruginosa JCM 6119, Staphylococcus aureus JCM2874, Salmonella Typhimurium JCM1652, Acinetobacter baumannii JCM6841, Bacteroides fragilis JCM11019, Fusobacterium nucleatum JCM11025, Penicillium glabrum JCM22534, Fusarium solani JCM11383, Alternaria alternata JCM5800 (RIKEN, A research institution for basic and applied science in Japan), Micrococcus luteus NBRC13867, Bacillus subtilis NBRC3134, Propionibacterium acnes NBRC107605, Trichophyton mentagrophytes NBRC6124, Trichophyton rubrum NBRC9185, Candida krusei NBRC1395 (National Institute of Technology and Evaluation, Tokyo, Japan), Salmonella Enteritidis IID604 (The Institute of Medical Science, The University of Tokyo, Tokyo, Japan). […] Serial two-fold dilutions of peptide were added to 0.1 ml of medium containing each type of bacteria and fungi at concentrations of 0.4×10^4 – 5×10^4 CFU/ml. The plates were incubated at 37°C with vigorous shaking for 24 or 48 hours. The MICs were determined as the lowest concentrations of peptide that inhibited visible bacterial growth.

[1] = system: Trichophyton mentagrophytes; assay: microbe, parasite or virus in culture; format: cell-based; details: 48 h
Method: (§2) Antimicrobial activity of the peptides was evaluated against Escherichia coli JCM 5491, Pseudomonas aeruginosa JCM 6119, Staphylococcus aureus JCM2874, Salmonella Typhimurium JCM1652, Acinetobacter baumannii JCM6841, Bacteroides fragilis JCM11019, Fusobacterium nucleatum JCM11025, Penicillium glabrum JCM22534, Fusarium solani JCM11383, Alternaria alternata JCM5800 (RIKEN, A research institution for basic and applied science in Japan), Micrococcus luteus NBRC13867, Bacillus subtilis NBRC3134, Propionibacterium acnes NBRC107605, Trichophyton mentagrophytes NBRC6124, Trichophyton rubrum NBRC9185, Candida krusei NBRC1395 (National Institute of Technology and Evaluation, Tokyo, Japan), Salmonella Enteritidis IID604 (The Institute of Medical Science, The University of Tokyo, Tokyo, Japan). Additionally, the clinical isolates (Drug-sensitive/resistant Pseudomonas aeruginosa and Staphylococcus aureus, Osaka University Hospital) and multidrug-resistant Acinetobacter baumannii (ATCC BAA-1605) were used. […] Serial two-fold dilutions of peptide were added to 0.1 ml of medium containing each type of bacteria and fungi at concentrations of 0.4×10^4 – 5×10^4 CFU/ml. The plates were incubated at 37°C with vigorous shaking for 24 or 48 hours. The MICs were determined as the lowest concentrations of peptide that inhibited visible bacterial growth.

Acinetobacter baumannii = format: cell-based; details: 48 h
Method: as §1

Alternaria alternata = assay: microbe, parasite or virus in culture; format: cell-based; details: 48 h
Method: as §2

[2] = peptide 500 μg/ml, 37°C, 3 or 10 minutes, acetonitrile/0.1% trifluoroacetate precipitation, HPLC, N = 2 (Fig. 1E)
Method: In vitro stability studies were performed by incubating the peptide with rat or human serum. Human sera (Pool of donors, 5 men and 5 women) were commercially purchased from KAC (Kyoto, Japan), which has been permitted only for experiment. We don't use the human biological specimens without the documented informed consent. Rat sera were collected from rats. The peptide (500 μg/ml) was added to serum (300 μL) and incubated at 37°C. A part of samples (90 μL) were taken, and the proteins were precipitated with acetonitrile containing 0.1% trifluoroacetate (200 μL). The precipitate was separated by centrifugation. The supernatants were analyzed by high-performance liquid chromatography (HPLC).

Candida krusei = assay: microbe, parasite or virus in culture; format: cell-based; details: 48 h
Method: as §2

E. coli (ATCC25922) = assay: microbe, parasite or virus in culture; format: cell-based, Escherichia coli; details: ATCC25922, 48 h
Method: as §2

Bacillus subtilis = assay: microbe, parasite or virus in culture; format: cell-based; details: 48 h
Method: as §1

Fusarium solani = assay: microbe, parasite or virus in culture; format: cell-based; details: 48 h
Method: as §2

[3] = system: Carbapenem-resistant Pseudomonas aeruginosa; format: cell-based; details: 48 h
Method: as §1

Trichophyton rubrum = assay: microbe, parasite or virus in culture; format: cell-based; details: 48 h
Method: as §2

S. aureus (ATCC29213) = assay: microbe, parasite or virus in culture; format: cell-based, Staphylococcus aureus; details: ATCC29213, 48 h
Method: as §2

Salmonella Typhimurium = assay: microbe, parasite or virus in culture; format: cell-based; details: murium, 48 h
Method: as §1

Micrococcus luteus = assay: microbe, parasite or virus in culture; format: cell-based; details: 48 h
Method: as §2

[4] = system: Multidrug-resistant Acinetobacter baumannii; format: cell-based; details: 48 h
Method: as §1

Bacteroides fragilis = assay: microbe, parasite or virus in culture; format: cell-based; details: 48 h
Method: as §2

## CC[C@H](C)[C@H](NC(=O)[C@H](CC(C)C)NC(=O)[C@H](CCCCN)NC(=O)[C@H](CC(C)C)NC(=O)[C@@H](N)CCSC)C(=O)N[C@@H](Cc1ccccc1)C(=O)N[C@@H](CC(C)C)C(=O)N[C@@H](Cc1c[nH]cn1)C(=O)N[C@@H](CCCNC(=N)N)C(=O)N[C@@H](CC(C)C)C(=O)N[C@@H](CCCCN)C(=O)N[C@@H](CCCNC(=N)N)C(=O)N[C@@H](CCSC)C(=O)N[C@@H](CCCNC(=N)N)C(=O)N[C@@H](CCCCN)C(=O)N[C@@H](CCCNC(=N)N)C(=O)N[C@@H](CC(C)C)C(=O)N[C@H](CCCCN)C(=O)N[C@@H](CCCNC(=N)N)C(=O)N[C@@H](CCCCN)C(=O)O [SR-0379] (H-MLKLIFLHRLKRMRKRL[dK]RK-OH)
Salmonella Enteritidis
  MIC Salmonella Enteritidis: 8 µg/mL (≈ 3 µM)
[1]
  MIC Trichophyton mentagrophytes: 32 µg/mL (≈ 12 µM)
Acinetobacter baumannii
  MIC Acinetobacter baumannii: 8 µg/mL (≈ 3 µM)
Alternaria alternata
  MIC Alternaria alternata: 32 µg/mL (≈ 12 µM)
[2]; human serum (pool of 5 men and 5 women) 300 μL
  Stability in human serum: significantly improved
[2]; rat serum 300 μL
  Stability in rat serum: significantly improved
Candida krusei
  MIC Candida krusei: 32 µg/mL (≈ 12 µM)
E. coli (ATCC25922)
  MIC E. coli (ATCC25922): 8 µg/mL (≈ 3 µM)
Bacillus subtilis
  MIC Bacillus subtilis: 2 µg/mL (≈ 0.75 µM)
Fusarium solani
  MIC Fusarium solani: 8 µg/mL (≈ 3 µM)
[3]
  MIC Pseudomonas aeruginosa, Carbapenem-resistant: 16 to 64 µg/mL
Trichophyton rubrum
  MIC Trichophyton rubrum: 64 µg/mL (≈ 24 µM)
S. aureus (ATCC29213)
  MIC S. aureus (ATCC29213): 16 µg/mL (≈ 6 µM)
Salmonella Typhimurium
  MIC Salmonella Typhimurium: 8 µg/mL (≈ 3 µM)
Micrococcus luteus
  MIC Micrococcus luteus: 2 µg/mL (≈ 0.75 µM)
[4]
  MIC Acinetobacter baumannii, Multidrug-resistant: 16 µg/mL (≈ 6 µM)
Bacteroides fragilis
  MIC Bacteroides fragilis: 32 µg/mL (≈ 12 µM)
